Reference: ChEMBL document CHEMBL3885881, “DrugMatrix”

Species: Rattus norvegicus
Assay: DrugMatrix - Regimen: Daily Repeat
Assay type: toxicity, organism-based, Sprague-Dawley
Set-up: regimen Daily Repeat, gender Male, age 6-8 weeks
Conditions: in vivo, po, route oral GAVAGE, vehicle 100 % WATER; for ABSOLUTE BASOPHIL / ABSOLUTE EOSINOPHIL / ABSOLUTE LYMPHOCYTE / ABSOLUTE MONOCYTE / ABSOLUTE SEGMENTED NEUTROPHIL / BASOPHIL / EOSINOPHIL / ERYTHROCYTE COUNT / HEMATOCRIT / HEMOGLOBIN / LEUKOCYTE COUNT / LYMPHOCYTE / MEAN CORPUSCULAR HEMOGLOBIN / MEAN CORPUSCULAR HEMOGLOBIN CONCENTRATION / MEAN CORPUSCULAR VOLUME / MONOCYTE / NEUTROPHIL / NUCLEATED RED BLOOD CELLS / PLATELET COUNT: tissue Blood; for ALANINE AMINOTRANSFERASE / ALBUMIN / ALKALINE PHOSPHATASE / ASPARTATE AMINOTRANSFERASE / BLOOD UREA NITROGEN / CARBON DIOXIDE / CHLORIDE / CHOLESTEROL / CREATINE PHOSPHOKINASE / CREATININE / GLUCOSE / LACTATE DEHYDROGENASE / LIPASE / PHOSPHORUS / POTASSIUM / SODIUM / TOTAL BILIRUBIN / TOTAL PROTEIN / URIC ACID: tissue Plasma
[1] = 30 mg/kg, 72 h, dose level Low, time 3 day
[2] = 30 mg/kg, 120 h, dose level Low, time 5 day
[3] = 3000 mg/kg, 72 h, dose level High, time 3 day
[4] = 3000 mg/kg, 120 h, dose level High, time 5 day

O=C(O)CC(O)(CC(=O)O)C(=O)O [CITRIC ACID]
ABSOLUTE BASOPHIL [1]: 0 CELLS/uL
ABSOLUTE EOSINOPHIL [1]: 0 CELLS/uL
ABSOLUTE LYMPHOCYTE [1]: 12691.33 CELLS/uL
ABSOLUTE MONOCYTE [1]: 367.33 CELLS/uL
ABSOLUTE SEGMENTED NEUTROPHIL [1]: 908 CELLS/uL
BASOPHIL [1]: 0%
EOSINOPHIL [1]: 0%
ERYTHROCYTE COUNT [1]: 5.83 x10E6/uL
HEMATOCRIT [1]: 37%
HEMOGLOBIN [1]: 14.67 G/DL
LEUKOCYTE COUNT [1]: 13.97 x10E3/uL
LYMPHOCYTE [1]: 91%
MEAN CORPUSCULAR HEMOGLOBIN [1]: 25.17 pg
MEAN CORPUSCULAR HEMOGLOBIN CONCENTRATION [1]: 39.67 G/DL
MEAN CORPUSCULAR VOLUME [1]: 63.43 fL
MONOCYTE [1]: 2.67%
NEUTROPHIL [1]: 6.33%
NUCLEATED RED BLOOD CELLS [1]: 0 /100WBC
PLATELET COUNT [1]: 1121.33 x10E3/uL
ALANINE AMINOTRANSFERASE [1]: 54.67 u/L
ALBUMIN [1]: 4.2 G/DL
ALKALINE PHOSPHATASE [1]: 442.33 u/L
ASPARTATE AMINOTRANSFERASE [1]: 93.33 u/L
BLOOD UREA NITROGEN [1]: 13.33 mg/dL
CARBON DIOXIDE [1]: 23 mmol/L
CHLORIDE [1]: 102.33 MEQ/L
CHOLESTEROL [1]: 85.67 mg/dL
CREATINE PHOSPHOKINASE [1]: 514.33 u/L
CREATININE [1]: 0.18 mg/dL
GLUCOSE [1]: 184.33 mg/dL
LACTATE DEHYDROGENASE [1]: 173 u/L
LIPASE [1]: 9.67 u/L
PHOSPHORUS [1]: 12.77 mg/dL
POTASSIUM [1]: 6.46 MEQ/L
SODIUM [1]: 146.53 MEQ/L
TOTAL BILIRUBIN [1]: 0.2 mg/dL
TOTAL PROTEIN [1]: 5.97 G/DL
URIC ACID [1]: 2.5 mg/dL
ABSOLUTE BASOPHIL [2]: 0 CELLS/uL
ABSOLUTE EOSINOPHIL [2]: 0 CELLS/uL
ABSOLUTE LYMPHOCYTE [2]: 16594.33 CELLS/uL
ABSOLUTE MONOCYTE [2]: 186.67 CELLS/uL
ABSOLUTE SEGMENTED NEUTROPHIL [2]: 1885.67 CELLS/uL
BASOPHIL [2]: 0%
EOSINOPHIL [2]: 0%
ERYTHROCYTE COUNT [2]: 5.64 x10E6/uL
HEMATOCRIT [2]: 37.07%
HEMOGLOBIN [2]: 14.63 G/DL
LEUKOCYTE COUNT [2]: 18.67 x10E3/uL
LYMPHOCYTE [2]: 88.67%
MEAN CORPUSCULAR HEMOGLOBIN [2]: 25.97 pg
MEAN CORPUSCULAR HEMOGLOBIN CONCENTRATION [2]: 39.47 G/DL
MEAN CORPUSCULAR VOLUME [2]: 65.7 fL
MONOCYTE [2]: 1%
NEUTROPHIL [2]: 10.33%
NUCLEATED RED BLOOD CELLS [2]: 0 /100WBC
PLATELET COUNT [2]: 1295.33 x10E3/uL
ALANINE AMINOTRANSFERASE [2]: 48 u/L
ALBUMIN [2]: 4.2 G/DL
ALKALINE PHOSPHATASE [2]: 374.67 u/L
ASPARTATE AMINOTRANSFERASE [2]: 80.67 u/L
BLOOD UREA NITROGEN [2]: 18 mg/dL
CARBON DIOXIDE [2]: 23 mmol/L
CHLORIDE [2]: 103.67 MEQ/L
CHOLESTEROL [2]: 77 mg/dL
CREATINE PHOSPHOKINASE [2]: 316.33 u/L
CREATININE [2]: 0.18 mg/dL
GLUCOSE [2]: 154.33 mg/dL
LACTATE DEHYDROGENASE [2]: 396.33 u/L
LIPASE [2]: 10.33 u/L
PHOSPHORUS [2]: 13.53 mg/dL
POTASSIUM [2]: 6.74 MEQ/L
SODIUM [2]: 147.27 MEQ/L
TOTAL BILIRUBIN [2]: 0.2 mg/dL
TOTAL PROTEIN [2]: 6.03 G/DL
URIC ACID [2]: 1.4 mg/dL
ABSOLUTE BASOPHIL [3]: 0 CELLS/uL
ABSOLUTE EOSINOPHIL [3]: 0 CELLS/uL
ABSOLUTE LYMPHOCYTE [3]: 12922.33 CELLS/uL
ABSOLUTE MONOCYTE [3]: 727.33 CELLS/uL
ABSOLUTE SEGMENTED NEUTROPHIL [3]: 1850.33 CELLS/uL
BASOPHIL [3]: 0%
EOSINOPHIL [3]: 0%
ERYTHROCYTE COUNT [3]: 5.42 x10E6/uL
HEMATOCRIT [3]: 33.17%
HEMOGLOBIN [3]: 13.3 G/DL
LEUKOCYTE COUNT [3]: 15.5 x10E3/uL
LYMPHOCYTE [3]: 83.67%
MEAN CORPUSCULAR HEMOGLOBIN [3]: 24.53 pg
MEAN CORPUSCULAR HEMOGLOBIN CONCENTRATION [3]: 40.1 G/DL
MEAN CORPUSCULAR VOLUME [3]: 61.2 fL
MONOCYTE [3]: 4.67%
NEUTROPHIL [3]: 11.67%
NUCLEATED RED BLOOD CELLS [3]: 0 /100WBC
PLATELET COUNT [3]: 1290.67 x10E3/uL
ALANINE AMINOTRANSFERASE [3]: 49.67 u/L
ALBUMIN [3]: 4.17 G/DL
ALKALINE PHOSPHATASE [3]: 428.33 u/L
ASPARTATE AMINOTRANSFERASE [3]: 78.33 u/L
BLOOD UREA NITROGEN [3]: 15.67 mg/dL
CARBON DIOXIDE [3]: 26.67 mmol/L
CHLORIDE [3]: 103 MEQ/L
CHOLESTEROL [3]: 70.33 mg/dL
CREATINE PHOSPHOKINASE [3]: 223 u/L
CREATININE [3]: 0.2 mg/dL
GLUCOSE [3]: 155 mg/dL
LACTATE DEHYDROGENASE [3]: 102.33 u/L
LIPASE [3]: 9.67 u/L
PHOSPHORUS [3]: 12.67 mg/dL
POTASSIUM [3]: 6.48 MEQ/L
SODIUM [3]: 145.77 MEQ/L
TOTAL BILIRUBIN [3]: 0.2 mg/dL
TOTAL PROTEIN [3]: 5.53 G/DL
URIC ACID [3]: 1.37 mg/dL
ABSOLUTE BASOPHIL [4]: 0 CELLS/uL
ABSOLUTE EOSINOPHIL [4]: 62.33 CELLS/uL
ABSOLUTE LYMPHOCYTE [4]: 16836 CELLS/uL
ABSOLUTE MONOCYTE [4]: 0 CELLS/uL
ABSOLUTE SEGMENTED NEUTROPHIL [4]: 2301.67 CELLS/uL
BASOPHIL [4]: 0%
EOSINOPHIL [4]: 0.33%
ERYTHROCYTE COUNT [4]: 5.65 x10E6/uL
HEMATOCRIT [4]: 36.43%
HEMOGLOBIN [4]: 14.37 G/DL
LEUKOCYTE COUNT [4]: 19.2 x10E3/uL
LYMPHOCYTE [4]: 87.67%
MEAN CORPUSCULAR HEMOGLOBIN [4]: 25.5 pg
MEAN CORPUSCULAR HEMOGLOBIN CONCENTRATION [4]: 39.47 G/DL
MEAN CORPUSCULAR VOLUME [4]: 64.63 fL
MONOCYTE [4]: 0%
NEUTROPHIL [4]: 12%
NUCLEATED RED BLOOD CELLS [4]: 1 /100WBC
PLATELET COUNT [4]: 1284.33 x10E3/uL
ALANINE AMINOTRANSFERASE [4]: 50 u/L
ALBUMIN [4]: 4.2 G/DL
ALKALINE PHOSPHATASE [4]: 416.67 u/L
ASPARTATE AMINOTRANSFERASE [4]: 71.67 u/L
BLOOD UREA NITROGEN [4]: 16.67 mg/dL
CARBON DIOXIDE [4]: 23.67 mmol/L
CHLORIDE [4]: 102 MEQ/L
CHOLESTEROL [4]: 77 mg/dL
CREATINE PHOSPHOKINASE [4]: 254.67 u/L
CREATININE [4]: 0.2 mg/dL
GLUCOSE [4]: 151 mg/dL
LACTATE DEHYDROGENASE [4]: 91.33 u/L
LIPASE [4]: 10.33 u/L
PHOSPHORUS [4]: 13.03 mg/dL
POTASSIUM [4]: 6.54 MEQ/L
SODIUM [4]: 144.77 MEQ/L
TOTAL BILIRUBIN [4]: 0.23 mg/dL
TOTAL PROTEIN [4]: 5.93 G/DL
URIC ACID [4]: 1.57 mg/dL
